What was measured:
[1] = biological target: T1, Type-2 angiotensin II receptor (Homo sapiens, UniProt P50052); type: cell-based; conditions: cho-k1; also: in other assays of this panel Not Active means under 50% inhibition at 10 µM
T1 sequence (P50052 whole entry): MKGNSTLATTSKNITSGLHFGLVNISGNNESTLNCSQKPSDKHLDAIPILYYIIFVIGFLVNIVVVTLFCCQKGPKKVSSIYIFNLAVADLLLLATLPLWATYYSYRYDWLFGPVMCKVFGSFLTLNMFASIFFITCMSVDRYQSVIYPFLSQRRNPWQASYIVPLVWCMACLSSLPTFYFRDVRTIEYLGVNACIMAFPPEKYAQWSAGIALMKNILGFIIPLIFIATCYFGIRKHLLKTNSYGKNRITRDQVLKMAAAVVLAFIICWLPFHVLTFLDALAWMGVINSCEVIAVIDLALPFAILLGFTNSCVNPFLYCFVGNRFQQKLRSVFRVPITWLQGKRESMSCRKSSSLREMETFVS

[2] = DRUGMATRIX: Calcium Channel Type L, Benzothiazepine radioligand binding (ligand: [3H] Diltiazem); type: cell membranes, Rattus norvegicus, Wistar, Brain, Membrane; conditions: Not Active = under 50% inhibition at 10 µM
Vasopressin V1a receptor = Vasopressin V1a receptor (Homo sapiens, UniProt P37288); type: cell membranes, Membrane; conditions: hek293; also: in other assays of this panel Not Active means under 50% inhibition at 10 µM
Cannabinoid receptor 1 = Cannabinoid receptor 1 (Homo sapiens, UniProt P21554); type: cell membranes, Chem-1, Membrane; conditions: chem-1; also: in other assays of this panel Not Active means under 50% inhibition at 10 µM
[3] = biological target: T2, Muscarinic acetylcholine receptor M5 (Homo sapiens, UniProt P08912); type: cell membranes, CHO-K1, Membrane; conditions: cho-k1; also: in other assays of this panel Not Active means under 50% inhibition at 10 µM
T2 sequence (P08912 whole entry): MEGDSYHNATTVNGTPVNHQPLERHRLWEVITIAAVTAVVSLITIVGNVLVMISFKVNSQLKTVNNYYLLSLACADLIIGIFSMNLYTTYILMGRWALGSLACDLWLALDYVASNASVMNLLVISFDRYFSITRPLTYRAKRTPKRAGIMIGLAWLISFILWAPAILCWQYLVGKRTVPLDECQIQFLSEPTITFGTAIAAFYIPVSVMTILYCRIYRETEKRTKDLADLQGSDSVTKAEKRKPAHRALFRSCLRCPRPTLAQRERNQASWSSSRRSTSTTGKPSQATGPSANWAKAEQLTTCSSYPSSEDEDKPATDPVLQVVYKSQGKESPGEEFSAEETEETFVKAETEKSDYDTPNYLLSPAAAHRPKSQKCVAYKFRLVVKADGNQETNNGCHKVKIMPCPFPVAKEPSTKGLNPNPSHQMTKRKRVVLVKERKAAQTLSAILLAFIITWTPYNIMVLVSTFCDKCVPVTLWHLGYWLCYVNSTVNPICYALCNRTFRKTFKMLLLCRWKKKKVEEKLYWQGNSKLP

[4] = DRUGMATRIX: Potassium Channel [KATP] radioligand binding (ligand: [3H] Glyburide); type: cell membranes, Membrane; conditions: hit-t15; Not Active = under 50% inhibition at 10 µM
[5] = biological target: T3, Angiotensin-converting enzyme (Oryctolagus cuniculus, UniProt P12822); type: tissue-based, Lung
T3 sequence (P12822 whole entry): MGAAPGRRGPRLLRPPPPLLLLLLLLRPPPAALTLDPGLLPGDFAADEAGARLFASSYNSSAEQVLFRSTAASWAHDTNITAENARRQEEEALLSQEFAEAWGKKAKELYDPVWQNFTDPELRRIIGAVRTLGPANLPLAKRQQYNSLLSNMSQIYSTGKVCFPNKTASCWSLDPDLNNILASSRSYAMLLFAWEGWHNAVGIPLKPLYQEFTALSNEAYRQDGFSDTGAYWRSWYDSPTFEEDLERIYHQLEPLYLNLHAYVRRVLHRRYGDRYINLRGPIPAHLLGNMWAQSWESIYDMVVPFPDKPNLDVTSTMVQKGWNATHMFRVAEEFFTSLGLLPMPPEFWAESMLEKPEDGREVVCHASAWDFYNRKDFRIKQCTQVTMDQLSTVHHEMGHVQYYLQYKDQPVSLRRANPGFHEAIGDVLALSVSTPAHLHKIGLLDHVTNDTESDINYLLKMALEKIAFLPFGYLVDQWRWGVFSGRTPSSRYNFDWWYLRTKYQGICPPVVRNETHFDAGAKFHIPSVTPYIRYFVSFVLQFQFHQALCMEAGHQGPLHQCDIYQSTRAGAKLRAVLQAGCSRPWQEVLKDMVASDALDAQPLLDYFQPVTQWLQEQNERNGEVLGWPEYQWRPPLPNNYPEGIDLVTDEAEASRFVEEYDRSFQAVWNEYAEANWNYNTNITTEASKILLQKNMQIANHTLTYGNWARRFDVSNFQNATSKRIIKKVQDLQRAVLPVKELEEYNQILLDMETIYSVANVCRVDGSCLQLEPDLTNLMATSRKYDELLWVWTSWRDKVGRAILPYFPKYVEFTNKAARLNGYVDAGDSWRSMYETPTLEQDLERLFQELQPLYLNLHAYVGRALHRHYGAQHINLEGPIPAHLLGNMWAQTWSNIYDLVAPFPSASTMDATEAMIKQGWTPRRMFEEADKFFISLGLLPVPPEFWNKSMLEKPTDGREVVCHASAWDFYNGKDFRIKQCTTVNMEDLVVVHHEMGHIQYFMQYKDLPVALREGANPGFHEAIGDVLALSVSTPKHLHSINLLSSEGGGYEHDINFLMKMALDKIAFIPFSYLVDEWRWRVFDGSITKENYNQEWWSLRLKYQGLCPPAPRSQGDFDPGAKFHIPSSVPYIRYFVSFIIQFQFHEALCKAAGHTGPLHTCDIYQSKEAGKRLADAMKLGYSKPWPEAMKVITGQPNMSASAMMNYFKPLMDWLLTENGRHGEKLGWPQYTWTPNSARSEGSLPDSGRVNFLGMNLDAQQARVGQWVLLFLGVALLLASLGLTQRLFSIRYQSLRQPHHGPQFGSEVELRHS

Chain of Vasopressin V1a receptor (P37288 whole entry): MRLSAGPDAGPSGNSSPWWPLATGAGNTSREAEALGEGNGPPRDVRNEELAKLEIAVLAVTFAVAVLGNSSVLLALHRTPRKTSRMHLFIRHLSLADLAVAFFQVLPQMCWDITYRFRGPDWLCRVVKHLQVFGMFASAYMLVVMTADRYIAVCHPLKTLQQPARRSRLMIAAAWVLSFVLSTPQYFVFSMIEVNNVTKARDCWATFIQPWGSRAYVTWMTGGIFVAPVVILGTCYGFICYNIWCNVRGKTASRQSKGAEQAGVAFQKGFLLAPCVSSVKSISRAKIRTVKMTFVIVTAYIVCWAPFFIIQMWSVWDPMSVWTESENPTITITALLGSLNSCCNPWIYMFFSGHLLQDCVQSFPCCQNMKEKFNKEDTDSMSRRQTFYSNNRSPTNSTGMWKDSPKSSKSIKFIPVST
Chain of Cannabinoid receptor 1 (P21554 whole entry): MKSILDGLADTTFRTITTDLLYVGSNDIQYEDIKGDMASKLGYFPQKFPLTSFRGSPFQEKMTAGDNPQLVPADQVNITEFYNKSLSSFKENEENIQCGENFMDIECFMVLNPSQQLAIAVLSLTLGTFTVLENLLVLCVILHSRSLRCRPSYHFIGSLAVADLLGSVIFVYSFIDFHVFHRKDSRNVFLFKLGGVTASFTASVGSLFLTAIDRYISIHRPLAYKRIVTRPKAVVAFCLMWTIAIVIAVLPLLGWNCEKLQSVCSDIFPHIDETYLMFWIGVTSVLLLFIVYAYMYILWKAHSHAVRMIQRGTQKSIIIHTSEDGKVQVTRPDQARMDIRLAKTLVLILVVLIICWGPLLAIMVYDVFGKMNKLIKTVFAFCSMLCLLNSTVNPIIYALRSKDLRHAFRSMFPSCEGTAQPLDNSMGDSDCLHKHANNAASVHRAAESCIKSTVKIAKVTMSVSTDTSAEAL

GADOPENTETATE DIMEGLUMINE
Not Active: IC50 [1] | Ki [1] | IC50 [2] | Ki [2] | IC50 (Vasopressin V1a receptor) | Ki (Vasopressin V1a receptor) | IC50 (Cannabinoid receptor 1) | Ki (Cannabinoid receptor 1) | IC50 [3] | Ki [3] | IC50 [4] | Ki [4] | IC50 [5] | Ki [5]

GENTAMICIN
Not Active: IC50 [1] | Ki [1] | IC50 [2] | Ki [2] | IC50 (Vasopressin V1a receptor) | Ki (Vasopressin V1a receptor) | IC50 (Cannabinoid receptor 1) | Ki (Cannabinoid receptor 1) | IC50 [3] | Ki [3] | IC50 [4] | Ki [4] | IC50 [5] | Ki [5]

GRAMICIDIN
Not Active: IC50 [1] | Ki [1] | IC50 [2] | Ki [2] | IC50 (Vasopressin V1a receptor) | Ki (Vasopressin V1a receptor) | IC50 (Cannabinoid receptor 1) | Ki (Cannabinoid receptor 1) | IC50 [3] | Ki [3] | IC50 [4] | Ki [4] | IC50 [5] | Ki [5]

NYSTATIN
Not Active: IC50 [1] | Ki [1] | IC50 [2] | Ki [2] | IC50 (Vasopressin V1a receptor) | Ki (Vasopressin V1a receptor) | IC50 (Cannabinoid receptor 1) | Ki (Cannabinoid receptor 1) | IC50 [3] | Ki [3] | IC50 [4] | Ki [4] | IC50 [5] | Ki [5]

Source: ChEMBL document CHEMBL1909046, “DrugMatrix in vitro pharmacology data”
